Measurements taken from patent publication US11034719B2, “7-dehydrocholesterol derivatives and methods using same” (University of Rochester, priority 2014, dated 2021).

What was measured:
A2058 cells xenograft = assay: melanoma (A2058) xenograft in nude mice; format: in vivo; details: 10 mg/kg bwt i.p., 5× week, 15 days
Experimental: (§1) Animal experiments were carried out in the animal facilities of Rhode Island Hospital (RIH), Rhode Island, USA with strict adherence to the guidelines of the Animal Welfare Committee of Rhode Island Hospital (RIH) and Women and Infants Hospital of Rhode Island (Laboratory Animal Protection Approval: A3922-01). Four to six week-old immunodeficient nude mice (NU/ NU; strain code 088/homozygous) (Charles River Laboratories, Wilmington, Mass.) were maintained at a temperature of ˜22° C. and a relative humidity of ˜55%, with a 12 h light/dark cycle. A2058 cells were cultured to 80% confluence, washed in PBS twice, harvested by trypsination, pooled in complete medium, washed in PBS twice, and 1×10^6 cells/inoculate were suspended in 0.1 ml of matrigel and inoculated subcutaneously in the flank of mice. Mice with developing tumors after two weeks were randomly assigned to experimental groups. Mice were treated intraperitoneally every day with either vehicle control (control group; 7 animals) or MeTC7 (10 mg/kg bwt, 5× week) for 15 days. Mice were weighed and tumor size were measured using a digital caliper every 5th days. The percent of animals with tumor size less than 15 mm was calculated by Kaplan-Meier Analysis.

[1] = tested on: various cancer cell lines; assay: viability of a panel of cancer cell lines (CellTiter 96 MTS); format: cell-based; details: FIGS. 11A-11C
Experimental: Viability of cell lines (ECC-1, AN3CA, RL-95-2, SKOV-3, PC-3, MCF-7, SMSKCNR and TCL-1) before and after MeTC7 treatment was determined by the CellTiter 96® AQueous One Solution Assay (Promega Corp, Madison, Wisc.) following the manufacturer's recommendations. This colorimetric assay is based on the ability of mitochondria to reduce a substrate [MTS, 3-(4,5-dimethylthiazol-2-yl)-5-(3-carboxymethoxy phenyl)-2-(4-sulfophenyl)-2H-tetrazolium] into a soluble formazan product quantified by measuring the absorbance at 490 nm. The resulting OD is directly proportional to the number of living cells. Briefly, cells (5×10^3/well) were plated into 96 well flat bottom plates (Corning, Inc., Coming, N.Y.) before treatment with various drugs or vehicle (DMSO) as indicated. Following incubation at 37° C. in a cell culture incubator for 20 h MTS reagent was added at a 1:10 dilution to the medium. The samples were incubated for an additional 4 h before absorbance was measured at 490 nm in an ELISA plate reader (Thermo Labsystems, Waltham, Mass.). Experiments were performed in triplicates; data are expressed as the mean of the triplicate determinations (X±SD) of a representative experiment in % of absorbance by samples with untreated cells [=100%]. Similarly, the cell viability of HEPG2 and HEK293 cells was determined except that the drug concentrations were used in the logarithmic values.

ECC-1 cells = assay: MTS cell viability assay, ECC-1; format: cell-based; details: FIG. 3
Experimental: ECC-1 cells were seeded (10,000 cells/well) in complete RPMI (supplemented with 10% fetal bovine serum and 1% antibiotic) and allowed to adhere over night. Media was replaced with a fresh complete RPMI media containing varying concentrations of Compound (3). DMSO was used as control. At suitable intervals (varying from 1 minute to 4 days), the media was replaced again with complete RPMI (supplemented with 10% fetal bovine serum and 1% antibiotic) containing MTS dye (Invitrogen Inc) and incubated for period (varying from 10 min to 1 day). The absorbance of the media was read at varying wavelengths, advantageously at […] in an ELISA reader.
(§2) Viability of cell lines (ECC-1, AN3CA, RL-95-2, SKOV-3, PC-3, MCF-7, SMSKCNR and TCL-1) before and after MeTC7 treatment was determined by the CellTiter 96® AQueous One Solution Assay (Promega Corp, Madison, Wisc.) following the manufacturer's recommendations. This colorimetric assay is based on the ability of mitochondria to reduce a substrate [MTS, 3-(4,5-dimethylthiazol-2-yl)-5-(3-carboxymethoxy phenyl)-2-(4-sulfophenyl)-2H-tetrazolium] into a soluble formazan product quantified by measuring the absorbance at 490 nm. The resulting OD is directly proportional to the number of living cells. […] The samples were incubated for an additional 4 h before absorbance was measured at 490 nm in an ELISA plate reader (Thermo Labsystems, Waltham, Mass.). […]

SKOV-3 cells [2] = assay: MTS cell viability assay, SKOV-3; format: cell-based; details: FIG. 1 / FIG. 2
Experimental: SKOV-3 cells were seeded (5,000 cells/well) in complete DMEM (supplemented with 10% fetal bovine serum and 1% antibiotic) and allowed to adhere overnight. Media was replaced with a fresh complete DMEM media containing varying concentrations of the drugs of interest. DMSO was used as control. At a suitable interval (varying from 1 minute to 4 days), the media was replaced again with complete RPMI (supplemented with 10% fetal bovine serum and 1% antibiotic) containing MTS dye (Invitrogen Inc.) and incubated for a period varying from 10 minutes to 1 day. The absorbance of the media was read at varying wavelengths, advantageously at […] in an ELISA reader.
as §2, with “nm.” for “nm. The resulting OD is directly proportional to the number of living cells.”

DAOY cells xenograft = assay: medulloblastoma (DAOY) xenograft in nude mice; format: in vivo; details: 10 mg/kg bwt i.p., 5× week, 15 days
Experimental: as §1, with “mice (NU/NU;” for “mice (NU/ NU;”, “cycle. DAOY” for “cycle. A2058”, “group; 6” for “group; 7”, “MeTC7 (n=5, 10” for “MeTC7 (10”, “days.” for “days. The percent of animals with tumor size less than 15 mm was calculated by Kaplan-Meier Analysis.”

[3] = tested on: panel of cancer cell lines; assay: ascorbic acid pretreatment, MTS viability in a panel of cancer cell lines; format: cell-based; details: ascorbic acid pretreatment 3 hours
Experimental: Cell lines derived from ovarian cancer, endometrial cancer, breast cancer, prostate cancer and neuroblastoma (5,000 cells/well) were seeded in complete DMEM (supplemented with 10% fetal bovine serum and 1% antibiotic) and allowed to adhere over night. Cells were pretreated with […] of acrorbic acid in 50 μL DMEM media for 3 hours. To the existing media was added DMEM media containing varying concentrations of 2× concentration of Compound (3). DMSO was used as control. At suitable intervals (varying from 1 minute to 4 days), the media was replaced again with complete RPMI (supplemented with 10% fetal bovine serum and 1% antibiotic) containing MTS dye (Invitrogen Inc) and incubated for period (varying from 10 min to 1 day). The absorbance of the media was read at varying wavelengths, advantageously at 492 nm, in an ELISA reader.

VDR-LBD = target: T1, VDR-LBD (Homo sapiens, UniProt P11473)
T1 sequence (P11473 127-423 limits assumed): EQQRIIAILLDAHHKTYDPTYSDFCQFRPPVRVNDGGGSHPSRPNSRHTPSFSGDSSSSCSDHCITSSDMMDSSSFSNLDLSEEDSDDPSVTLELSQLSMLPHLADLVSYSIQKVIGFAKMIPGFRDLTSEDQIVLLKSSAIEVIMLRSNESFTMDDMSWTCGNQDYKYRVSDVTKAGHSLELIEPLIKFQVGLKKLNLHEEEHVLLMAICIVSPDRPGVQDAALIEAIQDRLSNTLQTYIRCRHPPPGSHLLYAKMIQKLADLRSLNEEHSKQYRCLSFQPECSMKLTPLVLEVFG
Description: VDR antagonists disrupt this interaction by a direct or allosteric mode of inhibition.

[4] = tested on: SKOV-3 and OVCAR-8 ovarian cancer cells; assay: apoptosis detection (TUNEL, cytochrome-C release) in ovarian cancer cells; format: cell-based
Experimental: SKOV -3 and OVCAR-8 ovarian cancer cells (10,000 per well) were seeded in a 8 well slide chamber in DMEM complete media and allowed to incubate overnight. Cells were treated with complete media containing either vehicle or MeTC7 (500 nM) and incubated for 12 hours in a humidified incubator maintained at standard conditions. DNA fragmentation was detected using the DeadEndTM Fluorometric TUNEL System assay (Promega, Madison, Wisc.) according to the manufacturer's recommendations. Fluorescence of apoptotic cells (green; labeling of DNA nicks by fluorescein-12-dUTP) and of chromatin (red; staining of chromatin with propidium iodide) was detected by fluorescence microscopy with an inverted microscope (Nikon Eclipse TE2000-E) and a 10× objective. Four randomly chosen microscopic fields were captured. For the detection of the cytochrome-C release as a marker of the apoptosis, the cells were fixed in 5% cold formalin solution and cells were stained with cytochrome-C primary antibody (Santa Cruz Biotechnology, USA) and corresponding fluroescence linked secondary antibody. The images were recorded using an inverted microscope. At least five field were arbitrarily scoped.

SKOV-3 cells [5] = assay: inhibition of lipid synthesis in SKOV-3 cells (HPLC of extracted lipids); format: cell-based; details: 500 nM, serum free
Experimental: Approximately 3 million cells in serum free conditions were treated with Compound (3) (500 nM). Media was removed, and cells were washed with PBST, trypisinized and collected after centrifugation at 1,000 rpm. The cell pellet was washed with PBST and treated with methanolic HCl for 1 hour. The methanol was removed, and cells were suspended in water and extracted with chloroform. The collected chloroform layer was evaporated with a gentle nitrogen stream, and the residue was analyzed by HPLC.

SKOV-3 tumor xenographs = assay: SKOV-3 tumor xenograft in nude mice; format: in vivo
Experimental: The effects of exemplary compounds of the invention on the growth of SKOV-3 tumor xenographs in nude mice were investigated. Substantively, four- to six week-old immunodeficient nude mice (NU/NU; strain code 088/homozygous) (Charles River Laboratories, Wilmington, Mass.) were maintained at a temperature of 22±1° C. and a relative humidity of 55±5%, with a 12 h light/dark cycle. SKOV-3 cells were cultured to 80% confluence, washed in PBS twice, harvested by hypsination, pooled in complete medium, washed in PBS twice, and 2×10^6 cells/inoculate were suspended in 0.1 ml of matrigel and inoculated subcutaneously in the flank of mice. Mice with developing tumors after two weeks were randomly assigned to experimental groups. Compound (3) was prepared as a stock solution of 1 mM in 100% EtOH and diluted 1:40 in PBS for administration. […] Mice were weighed and tumor size caculated using a caliper every 5 days.
Four to six week-old immunodeficient nude mice (NU/NU; strain code 088/homozygous) (Charles River Laboratories, Wilmington, Mass.) were maintained at a temperature of −22° C. and a relative humidity of ˜55%, with a 12 h light/dark cycle. […]

[6] = tested on: rat aorta rings (microcapillary formation); assay: ex vivo rat aorta ring assay; details: 24 hour treatment, FIG. 9
Experimental: Rat aorta were harvested from the freshly euthanized naïve rats, cleaned and cut into fine rings and placed on matrigel beds prepared 30 min earlier in a 6 well plate. […] The media was replaced with fresh supplemented media and allowed the incubation for next 48 hours, thus affording a strong network of the microcappilary network. […] The phase contrast images were recorded on a pre-cooled inverted NICON microscope.

HUVEC cells = assay: wound healing (scratch) assay with HUVEC cells; format: cell-based; details: 500 nMoles, 24 hours
Experimental: A 24-well plate was coated with 100 µL of sterile 1% gelatin solution per well. After gelatin coating was hardened, about 100,000 HUVEC cells were seeded per well and allowed to grow to 100% confluence in EBM-2 media. A […] tip was then used to create a vertical scratch wound down the center of each well, and cells were washed once with fresh EBM-2 media. Cell monolayers were then imaged at a 0 h time point using light microscopy on an inverted microscope under sterile conditions. Wound areas were imaged again using light microscopy, and areas were demarcated on representative images.
Floating cells were removed and media was replaced with HUVEC cell media supplemented with vehicle or Compound (3) (500 nMoles) and incubated for 24 hours. The cells were imaged using a pre-cooled inverted NICON microscope (40×).

## CC(C)CCC[C@@H](C)[C@H]1CC[C@H]2C34C=CC5(C[C@@H](OC(=O)CBr)CC[C@]5(C)[C@H]3CC[C@]12C)n1c(=O)n(C)c(=O)n14 (stereo partly shown) [Compound (3)]
A2058 cells xenograft
  growth of BRAF mutant melanoma xenografts: reduce the growth of BRAF mutant melanoma xenografts in animals
A2058 cells xenograft; Kaplan-Meier
  survival of animals with melanoma xenografts: extend survival in these animals
[1]
  growth of cancer cell lines: block growth of various cancer cell lines
ECC-1 cells
  cell viability of ECC-1 cells: reduction in cell viability
SKOV-3 cells [2]
  cell viability of SKOV-3 cells: reduction in cell viability
DAOY cells xenograft
  growth of medulloblastoma xenografts: reduce the growth of medulloblastoma xenografts in animals
[3]
  cytotoxic effects after ascorbic acid pretreatment: reduced the cytotoxic effects
VDR-LBD; FIGS. 10A-10F
  VDR antagonism, selectivity: selective Vitamin D nuclear receptor (VDR) antagonists
VDR-LBD; in the absence of calcitriol
  VDR agonism (coactivator recruitment): not a VDR agonist
[4]; 500 nM, 12 hours
  cytochrome-C release: abundant cytochrome-C release in the cytosol
[4]; FIGS. 11D-11E
  apoptosis: cause apoptosis
SKOV-3 cells [5]
  lipids appearing at 10.06 minutes (HPLC): significantly reduced
SKOV-3 tumor xenographs; 10 mg/kg bwt i.p. every other day, 40 days, FIG. 7
  tumor burden: reduces the tumor burden
SKOV-3 tumor xenographs; 10 mg/kg bwt i.p., 5× week, 31 days, FIG. 11F
  growth of ovarian cancer xenografts: reduce the growth of ovarian cancer xenografts in animals
[6]
  capillary formation and outgrowth: inhibited capillary formation and outgrowth
HUVEC cells
  recovery of the scratched area: failed to recover and repopulate the scratched area
